Like-named read-outs stand apart in the source and are kept apart here.
Columns and labels:
[1] = tested on: HCV luciferase replicon; experiment: Reversal of anti-HCV activity by exogenous nucleosides; format: cell-based, hepatitis C virus (HCV); conditions: drug 1000, 100 or 25 nM; 50 μM cytidine or 2′-deoxycitidine; 48 h
Protocol: After 48 hours, the cells were lysed, and the total luciferase activity was determined. […] Where indicated, either 50 μM cytidine (C) or 50 μM 2′-deoxycitidine (dC) was also included.
The cells were plated, incubated with drug, and luciferase activity assayed essentially as described herein above. The incubation with drug was for 48 h.

[2] = in vitro
Protocol: Plating Cells: The Huh7 cell line was passaged when it was at about 70% confluency. The cells were counted using a hemocytometer, followed by dilution of the cells to 0.5×10^5 cells per mL in DMEM+10% FBS. The cells were plated at 100 μL (5,000 cells) per well in a clear 96-well plate. The cells were allowed to attach for 24 hours at 37° C.
Treating the cells: The media (DMEM media without phenol red+2% FBS media) was pre-warmed to 37° C. […] This provided a final DMSO concentration of 0.5%. The 100 mM stock of 3,5-dichlorobenzoic acid was diluted in DMEM without phenol red+2% FBS to a concentration of 0.5 mM. The working 0.5 mM diluted test drugs were serially diluted in DMEM without phenol red+2% FBS+0.5% DMSO in order to maintain a constant concentration of DMSO in each condition. The 96-well plate was removed from the 37° C. incubator, and the media on the plate was replaced with media containing diluted test drug.
MTS Assay: The reagents from CellTiter 96 kit (Promega Corporation, Madison, Wis.) were thawed at room temperature in the dark for 1 h. The 96-well plate was removed from the 37° C. incubator at 48 h after drug treatment. 20 μL of the combined MTS/PMS reagent to each well of the plate, mixed, and the plate returned to 37° C. The absorbance of each well at 490 nm and 650 nm was determined using the Flexstation 3 microplate reader in endpoint mode every hour for 3 h. The solutions in the wells were mixed prior to each reading. The data were fit to the Emax model: y=(Emax*x)/(TC50+x), where Emax is the maximum inhibition and TC50 is the inhibitory dose 50%. Alternatively, the data can be fit to the Emax sigmoidal model: y=(Emax*x^slope)/(TC50^slope+x^slope), where slope is the Hill Slope.

[3] = tested on: HCV luciferase replicon; experiment: HCV luciferase replicon inhibition in the presence of carboxylesterase inhibitors (benzil or BNPP); format: cell-based; conditions: Hepatitis C virus, 48 h
Protocol: The cells were counted using a hemocytometer, and then diluted to 1×10^5 cells/mL in DMEM with 10% FBS and […] G415. 100 μL of the cells (10,000 cells) were plated per well in a white-walled 96-well plate according to the template on the following page.
Treating the cells: Media (DMEM with 2% FBS) was pre-warmed to 37° C. Stock solutions (100 mM) of Benzil and BNPP were diluted in DMEM with 2% FBS to 100 μM. […] The cells were returned to 37° C. for 1 h. […] The 1.0 mM dilution of GCB or GTB in DMEM+2% FBS+100 μM Benzil or BNPP was serially diluted in DMEM with 2% FBS, 0.5% DMSO, 100 μM benzil or BNPP. At the end of the 1 h incubation, the 96-well plate with cells plated as above was removed from the 37° C. incubator, and 50 μL media diluted test drug and 100 μM of benzil or BNPP was added to each well. The plates were gently rocked to mix the media. Also included were conditions with inhibitors alone (DMEM+2% FBS+0.5% DMSO+100 μM benzil or BNPP) and media alone (DMEM+2% FBS+0.5% DMSO) in triplicate. The plates were returned to 37° C. for 48 h.

[4] = tested on: HCV luciferase replicon; experiment: Isobologram analysis of synergism with other anti-viral compounds; format: cell-based, hepatitis C virus (HCV)
Protocol: Isobologram analysis was carried to assess the potential synergistic interaction of representative disclosed compounds with representative antiviral compounds. The isobolgram analysis was conducted as previously described by Chou and Talalay (see Chou T. C. and Talalay P. “Analysis of combined drug effects: a new look at a very old problem.” Trends Pharmacol Sci 1983; 4:450-4; and Chou T. C. and Talalay P. “Quantitative analysis of dose-effect relationships: the combined effects of multiple drugs or enzyme inhibitors.” Adv Enzyme Regul 1984; 22:27-55). The definitions of synergism are those described by Chou (see Chou, T. C. (2006) Theoretical basis, experimental design, and computerized simulation of synergism and antagonism in drug combination studies. Pharmacol Rev. 58(3):621-81).
Data for the isobologram analysis are shown in FIGS. 12-15, and shown in each figure are the test compound concentrations and corresponding combination index.

[5] = TC50 MTS assay: RPK9 cells (deficient in deoxycytidine kinase); format: cell-based; conditions: human, 48 h drug treatment, dCK-deficient cells
Protocol: Plating Cells: The Huh7, HEPG2, HEK293, MCF-7, PK9, RPK9, or BxPC3 cells were passaged when they were about 70% confluent. The cells were counted using a hemocytometer, and then diluted cells to 0.5×10^5 cells per mL in DMEM+10% FBS. 100 µL of the cells (5,000 cells) were plated per well in a clear 96-well plate. The cells were allowed to attach for 24 hours at 37° C.
Treating the cells: Pre-warm the DMEM media without phenol red+2% FBS media to 37° C. […] This will bring the final DMSO concentration to 0.5%. Use these 0.5 mM dilutions to further serially the drugs in DMEM without phenol red+2% FBS+0.5% DMSO. This will keep the concentration of DMSO in each condition identical. Remove the 96-well plate from the 37° C. incubator. Replace the media on the plate with the dilutions of the drugs. Stagger these treatments by 1 h and write the treatment time on each set of plates. Return to 37° C. for 48 h or 96 h as indicated.
MTS Assay: The reagents from CellTiter 96 kit (Promega Corporation, Madison, Wis.) were thawed at room temperature in the dark for 1 h. The 96-well plate was removed from the 37° C. incubator at 48 h after drug treatment. […] The absorbance of each well at 490 nm and 650 nm was determined using the Flexstation 3 microplate reader in endpoint mode every hour for 3 h. The solutions in the wells were mixed prior to each reading. […]

SMILES | reversal of the inhibition of the HCV luciferase replicon by deoxycytidine and cytidine [1] | CC50 at 48 h [2] [µM] | IC50 ([3]; 100 μM BNPP, read-out: IC50 (nM) +BNPP) [nM] | IC50 ([3]; 100 μM benzil, read-out: IC50 (nM) +Benzil) [nM] | IC50 ([3]; no carboxylesterase inhibitor, read-out: IC50 (nM) −Benzil −BNPP) [nM] | Interaction Type with BMS-790052 ([4]; Compound 2 = BMS-790052) | Interaction Type with PSI-7977 ([4]; Compound 2 = PSI-7977) | CC50 at 48 h [5] [µM]
O=C(Nc1ccn([C@@H]2O[C@H](CO)[C@@H](O)C2(F)F)c(=O)n1)c1cc(Cl)cc(Cl)c1 [GCB, N^4-(3,5-Dichlorobenzoyl)gemcitabine] | reversal | 110 ± 36 |  |  |  |  |  | 
COc1cc(C(=O)Nc2ccn([C@@H]3O[C@H](CO)[C@@H](O)C3(F)F)c(=O)n2)cc(OC)c1OC [GTB, N^4-(3,4,5-Trimethoxybenzoyl)gemcitabine] | reversal | 495 ± 97 | 81 | 125 | 49 | moderate synergism | moderate antagonism | > 500

— patent US9744186B2 (priority 2012, dated 2017)
